In test [1] the target is T1, KDM5C (Homo sapiens, UniProt P41229).
T1 construct: FLAG; made in house
In words: AlphaScreen KDM5C demethylation assay. The class given is biochemical. The procedure: Histone demethylase assays were performed using previously described methods (Sayegh et al., 2013, J. Biol. Chem. 9408-9417), with the exception of all enzyme reactions containing 125 μM α-KG. Enzymes were used at the following approximate concentrations in validation experiments, chosen based on their activity in AlphaScreen assays: 19 nM FLAG-KDM5A, 15 nM FLAG-KDM5B, 6 nM FLAG-KDM5C, 29 nM His-FLAG-KDM6A, and 16 nM FLAG-KDM6B. 24 nM FLAG-KDM5A was used for Km determination experiments. Reactions were carried out for 1 hour, or were stopped by addition of 30 mM EDTA every 5 minutes for determining enzyme kinetics. Km values were calculated using the Michaelis-Menten non-linear regression analysis on GraphPad Prism 6.0 software. The concentration of DMSO in demethylation reactions was 0.05%. For reactions with catalase, catalase (Sigma C30) or an equal volume of dilution buffer was added to the peptide-containing buffer before addition of the demethylase. The final concentration of catalase in the reactions was 0.01 mg/ml.
The AlphaScreen general IgG (protein A) detection kit from PerkinElmer Life Sciences was used as described previously (Sayegh et al., 2013, J. Biol. Chem. 9408-9417). The luminescence emission was recorded at 570 nm using the AlphaScreen optic module on a Pherastar (BMG Labtech) or Envision (PerkinElmer Life Sciences) microplate reader.
(In general: Alpha assays give light when donor and acceptor beads are brought close together.)

Test [2] concerns H3K4 methylation in MDA-MB-231 cells. Briefly: Western blot of global H3K4 methylation, MDA-MB-231. The note with it: MDA-MB-231, 72 hr treatment. The format is cell-based, human. The method, then:
Sf21 insect cells were cultured at 27° C. in Grace's medium (Gibco) with 10% fetal bovine serum (FBS) and 1% penicillin/streptomycin. HeLa cells were cultured in DMEM (Gibco) with 10% FBS and 1% penicillin/streptomycin. BT474, MCF7, MDA-MB-231, PC9 and ZR-75-1 cells were cultured in RPMI 1640 (Gibco) with 10% FBS and 1% penicillin/streptomycin. MCF10A cells were cultured as using previously described methods (Sayegh et al., 2013, J. Biol. Chem. 9408-9417). All human cells were cultured at 37° C. and 5% carbon dioxide. HeLa and MCF7 cell lines were authenticated using short tandem repeat profiling performed at the DNA Analysis Facility on Science Hill at Yale University. All other human cell lines used were within 10 passages after being obtained from the American Type Culture Collection.
Cells were lysed using previously described methods (Lin et al., 2011, Proc. Natl. Acad. Sci. U.S.A. 108:13379-13386). Histones were separated by centrifugation, resuspended in Laemmeli buffer, and sonicated. Protein concentration of cell lysates was measured by Bradford assay. Samples in Laemmeli buffer were boiled 10 minutes at 95° C. and loaded onto 7% (whole cell lysates) or 18% (histones) SDS-PAGE gels. […] Signal was quantified using ImageJ software.
A general note: A western blot detects proteins with antibodies after separation by electrophoresis.

T1 sequence (P41229 whole entry): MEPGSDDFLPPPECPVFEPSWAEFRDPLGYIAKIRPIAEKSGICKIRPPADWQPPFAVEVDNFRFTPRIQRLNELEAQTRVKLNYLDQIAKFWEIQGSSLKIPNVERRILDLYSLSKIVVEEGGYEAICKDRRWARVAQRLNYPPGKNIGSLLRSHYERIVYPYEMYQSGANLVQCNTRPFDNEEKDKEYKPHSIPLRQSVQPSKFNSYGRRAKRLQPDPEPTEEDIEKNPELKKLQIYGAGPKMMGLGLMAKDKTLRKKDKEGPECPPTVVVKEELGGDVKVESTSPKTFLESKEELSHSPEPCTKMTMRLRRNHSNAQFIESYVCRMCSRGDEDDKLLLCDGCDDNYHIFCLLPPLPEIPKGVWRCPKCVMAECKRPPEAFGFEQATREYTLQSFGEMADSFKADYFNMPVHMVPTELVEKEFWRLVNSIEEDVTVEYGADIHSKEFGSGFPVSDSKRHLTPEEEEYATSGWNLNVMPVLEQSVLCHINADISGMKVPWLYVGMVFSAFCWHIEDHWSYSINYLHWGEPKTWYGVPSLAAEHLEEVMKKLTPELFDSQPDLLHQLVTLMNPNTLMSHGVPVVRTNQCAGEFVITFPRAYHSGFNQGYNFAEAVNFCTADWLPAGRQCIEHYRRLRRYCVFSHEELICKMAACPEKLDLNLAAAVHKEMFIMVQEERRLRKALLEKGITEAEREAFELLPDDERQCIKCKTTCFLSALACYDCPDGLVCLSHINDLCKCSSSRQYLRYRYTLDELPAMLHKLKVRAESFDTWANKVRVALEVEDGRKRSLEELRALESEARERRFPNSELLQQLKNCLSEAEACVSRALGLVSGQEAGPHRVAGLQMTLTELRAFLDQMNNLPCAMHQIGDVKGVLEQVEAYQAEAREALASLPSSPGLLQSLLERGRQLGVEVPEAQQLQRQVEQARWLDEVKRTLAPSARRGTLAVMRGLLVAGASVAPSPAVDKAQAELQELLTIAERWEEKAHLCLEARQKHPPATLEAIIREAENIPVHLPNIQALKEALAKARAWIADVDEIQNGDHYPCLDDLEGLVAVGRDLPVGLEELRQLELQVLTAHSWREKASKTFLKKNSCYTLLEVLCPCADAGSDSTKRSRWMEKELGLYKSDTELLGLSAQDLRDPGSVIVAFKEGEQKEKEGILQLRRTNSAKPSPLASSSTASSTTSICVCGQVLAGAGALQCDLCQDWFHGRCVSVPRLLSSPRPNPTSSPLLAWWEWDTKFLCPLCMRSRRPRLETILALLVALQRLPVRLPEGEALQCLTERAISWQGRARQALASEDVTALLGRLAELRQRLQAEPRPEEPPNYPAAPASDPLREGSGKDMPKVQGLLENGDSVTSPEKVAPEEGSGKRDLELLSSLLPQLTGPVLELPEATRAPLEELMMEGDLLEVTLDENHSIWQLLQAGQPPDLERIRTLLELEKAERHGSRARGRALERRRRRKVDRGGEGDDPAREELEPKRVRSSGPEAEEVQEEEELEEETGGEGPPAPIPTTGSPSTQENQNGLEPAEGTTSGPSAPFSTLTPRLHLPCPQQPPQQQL

Regarding `C=CCOc1c(CNn2cnnc2S)cccc1OC` [YUKA1, 4-([2-(allyloxy)-3-methoxybenzyl]amino)-4H-1,2,4-triazole-3-thiol], the “fold less active against KDM5C (vs KDM5A)” value in test [1] is given as about 3 fold. Further, the H3K4 methylation entry in test [2] is given as “only minor changes”.

These data come from patent US20190151289A1, “Identification of Small Molecule Inhibitors of Jumonji AT-Rich Interactive Domain 1A (JARID1A) Histone Demethylase” (YALE UNIVERSITY, priority 2016, published 2019).
